Results on three substances are retold here after patent US9593148B2, “DPP8 and DPP9 peptide inhibitors” (GEORG-AUGUST-UNIVERSITAT GOTTINGEN STIFTUNG OFFENTLICHEN …, priority 2012, dated 2017).

No end group written: not given here.

The target of test [1] is T1, DPP9 (Homo sapiens, UniProt Q86TI2).
T1 construct: made in house; host or cells: Sf9 insect cells (baculovirus)
Description: Kinetics assay, Ki for inhibition of DPP9 (GP-AMC hydrolysis). The test is classed as biochemical. The protocol:
(§1) Enzyme kinetics and the Ki of DPP8 or DPP9 may be determined as follows: 25 nM purified recombinant enzyme (DPP9 or DPP8) are incubated with varying concentrations of GP-AMC ([…] GP-AMC), in TB buffer (20 mM Hepes/KOH pH 7.3, 110 mM potassium acetate, 2 mM Mg acetate, 0.5 mM EGTA), supplemented with 0.2% Tween-20, 1 mM dithiothreitol. Experiments are performed in triplicates. To measure Ki values, for each set of experiments, inhibitory peptides are added to DPP9 or DPP8. Peptide concentrations tested are in the range between 0.04 to 50 μM. Release of AMC from GP-AMC is measured using the Appliskan microplate fluorimeter (Thermo Scientific) with 380 nm (excitation) and 480 nm (emission) filters and the Skanit software, and analysed using the Prism software.
(§2) A&B 25 nM purified recombinant (A) DPP9 or (B) DPP8 were incubated with varying concentrations of the EIL peptide (0, 3.3 μM and 6.6 μM) and tested for hydrolysis of GP-AMC (1000, 500, 250, 125, 0 μM). C. 25 nM DPPIV was tested for the hydrolysis of GP-AMC (500, 250, 125, 0 μM) in the presence of 0 or 13 μM EIL peptide. Fluorescence was measured using the Appliskan microplate fluorimeter (Thermo Scientific) with 380 nm (excitation) and 480 nm (emission) filters and the Skanit software, and analysed using the Prism software. Each experiment was performed at least three times, in replicates of four.
(§3) Kinetics assays: Purified recombinant DPP9 (25 nM) was incubated with varying concentrations of GP-AMC, in TB supplemented with 0.2% Tween-20, 1 mM ditiothreitol. For inhibition assays, inhibitory peptides were added directly to the reaction mixture. For activation by SUMO 0.2 mg/ml BSA, was added to the buffer to prevent non specific binding. DPP9 were incubated with 2.5 μM of either SUMO1, SUMO1 E67A, SUMO2 for 2 hour on ice prior to the assay. Alternatively DPP9 was incubated with 1 μM of RanGAP or RanGAP modified with either SUMO1 or SUMO2 for 2 hours prior to the assay. Fluorescence was measured using the Appliskan microplate fluorimeter (Thermo Scientific) with 380 nm (excitation) and 480 nm (emission) filters and the Skanit software, and analysed using the Prism software. Each experiment was performed at least three times, in replicates of four.

The next test deals with DPPIV (Homo sapiens, UniProt P27487). The experiment in a line: GP-AMC hydrolysis by DPPIV in the presence of peptide. The format is biochemical. Conditions: concentrations measured up to 50 μM. The protocol:
Preferably, the peptide is capable of inhibiting the activity by wild-type DPP9 (SEQ ID NO: 6) to a level of 30 to 5%, 29 to 5%, 28 to 5%, 27 to 5%, 26 to 5%, 25 to 5%, 24 to 5%, 23 to 5%, 22 to 5%, 21 to 5%, 20 to 5%, 19 to 5%, 18 to 5%, 17 to 5%, 16 to 5%, 15 to 5%, 14 to 5%, 13 to 5%, 12 to 5%, 11 to 5%, 10 to 5%, 9 to 5%, 8 to 5%, such as 7.5 to 5% of the activity of wild-type DPP9 (SEQ ID NO: 6) if not inhibited. […] Release of AMC from GP-AMC is measured using the Appliskan microplate fluorimeter (Thermo Scientific) with 380 nm (excitation) and 480 nm (emission) filters and the Skanit software, and analysed using the Prism software.
as §2

Test [2] concerns HeLa cells. Description: Cytosolic prolyl peptidase activity of HeLa cells treated with peptide alone or with Pep-1. The format is cell-based, human. Conditions: 5 μM peptide, 30 min, also in the absence of carrier peptide Pep-1. How it is done:
In another experiment, HeLa cells were treated for 30 minutes with either 5 μM […] (SEQ ID NO: 38) alone or in complex with the carier peptide Pep-1. Cells were then typsinized and cytosolic extracts were prepared and tested for cleavage of the model substrate GP-AMC. Upper panel: […] (SEQ ID NO: 38) was allowed to form a complex with carrier peptide Pep-1 at a molar ratio of 1:10 (cargo:carrier) in FCS free DMEM for 30 min at 37° C. Lower panel: As a comparison, the inhibitory peptide […] was used also in the absence of carrier peptide, at the same concentration. For control, the solvent DMSO was used. These mixtures were overlaid onto HeLa cells allowing the entry for 30 minutes at 37° C. Cells were then trypsinized and lysed in TB buffer containing 0.2% Tween. After ultracentrifugation, the cytosolic extract were probed for DPP activity using […] of the fluorogenic substrate GP-AMC. Each experiment was performed in triplicates.

For the next test, the target named is T2, DPP8 (Homo sapiens, UniProt Q6V1X1).
T2 construct: made in house; host or cells: Sf9 insect cells (baculovirus)
T2 sequence (Q6V1X1 whole entry): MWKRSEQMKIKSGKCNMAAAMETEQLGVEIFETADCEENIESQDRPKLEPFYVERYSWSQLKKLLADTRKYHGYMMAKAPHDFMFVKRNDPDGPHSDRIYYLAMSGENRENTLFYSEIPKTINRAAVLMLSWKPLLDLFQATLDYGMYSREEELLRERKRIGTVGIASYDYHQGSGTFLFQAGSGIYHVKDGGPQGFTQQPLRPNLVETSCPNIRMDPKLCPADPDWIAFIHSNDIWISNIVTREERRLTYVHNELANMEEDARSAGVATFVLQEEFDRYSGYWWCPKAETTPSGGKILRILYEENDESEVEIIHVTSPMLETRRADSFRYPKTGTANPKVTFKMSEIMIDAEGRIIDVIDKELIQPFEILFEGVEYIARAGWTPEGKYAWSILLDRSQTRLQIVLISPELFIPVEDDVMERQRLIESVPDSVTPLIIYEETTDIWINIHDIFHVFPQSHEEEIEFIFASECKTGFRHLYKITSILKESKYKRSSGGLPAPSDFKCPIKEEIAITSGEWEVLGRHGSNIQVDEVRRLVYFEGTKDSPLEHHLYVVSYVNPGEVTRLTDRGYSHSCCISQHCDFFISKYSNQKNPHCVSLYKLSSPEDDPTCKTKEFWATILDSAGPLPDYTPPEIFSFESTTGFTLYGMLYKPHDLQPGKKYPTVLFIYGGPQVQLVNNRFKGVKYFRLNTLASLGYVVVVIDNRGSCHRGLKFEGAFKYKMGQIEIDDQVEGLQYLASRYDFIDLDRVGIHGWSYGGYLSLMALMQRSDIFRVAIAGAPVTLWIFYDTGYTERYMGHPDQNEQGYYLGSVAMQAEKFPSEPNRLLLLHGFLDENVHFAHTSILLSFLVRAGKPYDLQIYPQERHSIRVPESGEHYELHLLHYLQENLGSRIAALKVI
Description: Kinetics assay, Ki for inhibition of DPP8 (GP-AMC hydrolysis). The format is biochemical. How it is done: as §1, §2

Test [3] has as its system HeLa cells. The experiment in a line: MTT proliferation assay of HeLa cells expressing the peptide. Conditions: Ubiquitin-SLRFLYEG-YFP construct, 32 hours after transfection, vs control plasmid or mock. The format is cell-based, human. The protocol:
To test whether DPP8/9 inhibition effects cell viability, the inventors performed MTT (3-4,5-dimethylthiazol-2-yl)-2,5-diphenyltetrazolium bromide) based assays, which are widely used to measure cell proliferation and growth (e.g. in clinical settings for testing tumor sensitivity to chemotherapeutic agents). This assay involves the conversion of the water soluble MTT to an insoluble formazan. The formazan is then solubilized in 0.1N HCl. Absorbance is then determined at 570 nm. For a prolonged exposure of cells to the allosteric DPP8/9 inhibitor […] (SEQ ID NO: 38), the inventors cloned the peptide into a mammalian expression vector pEYFP-N1 from Clontech. The peptide inhibitor contains a serine at its amino-termini. Thus, to avoid expression of the peptide with a methionine residue at its amino terminus, it was cloned in frame with ubiquitin. Once expressed in cells, the ubiquitin moiety is cleaved by ubiquitin isopeptidases to release the […]-YFP (SEQ ID NO: 38) construct. A control construct was included that lacked the […] (SEQ ID NO: 38) peptide (Ubiquitin-YFP). […] 32 hours after transfection, cells were analyzed via a standard MTT assay.
Briefly, cell media was removed and replaced by 0.5 mg/ml of MTT reagent. […] Absorbance was measured with a microplate fluorimeter. […]
On the technique in general: Formazan colour is commonly taken as a measure of viable cells.

The target in test [4] is T1, DPP9. The experiment in a line: Inhibition of GP-AMC hydrolysis by purified recombinant DPP9 at a single peptide concentration. The test is classed as biochemical. Conditions: 25 nM DPP9, 0.2 mM GP-AMC, 10 μM peptide; DPP9 alone = 100.3. The protocol: Accordingly, the peptide is capable of inhibiting the activity of wild-type DPP9 (SEQ ID NO: 6) to a level of 35 to 5% of the activity of wild-type DPP9 (SEQ ID NO: 6) if not inhibited, as determined in an assay using 25 nM purified DPP9, 0.2 mM GP-AMC, and 14 μM of the peptide to be tested, in TB buffer (20 mM Hepes/KOH pH 7.3, 110 mM potassium acetate, 2 mM Mg acetate, 0.5 mM EGTA), supplemented with 0.2% Tween-20, 1 mM dithiothreitol. Release of AMC from GP-AMC is measured using the Appliskan microplate fluorimeter (Thermo Scientific) with 380 nm (excitation) and 480 nm (emission) filters and the Skanit software, and analysed using the Prism software.
as §3
To improve the inhibition of DPP9, the inventors tested several peptide libraries composed of truncated variants of the EIL peptide (>80% pure, ordered from Genescript). These peptides were incubated with recombinant DPP9 and analysed GP-AMC hydrolysis. AMC release was then compared to samples containing either DPP9 alone, or the EIL peptide.

The subject of a further test is HEK293 cells. Description: Cytosolic prolyl peptidase activity of HEK293 cells treated with peptide plus carrier Peptide 1. The format is cell-based, human. Conditions: 5 μM peptide with 100 μM Peptide 1, 30 min, 5 μg extract, 500 μM GP-AMC. The protocol:
Cells were incubated for 30 minutes with 0 μM, 5 μM or 10 μM […] (SEQ ID NO: 40) and 100 μM carrier pep-1. Cytosolic extracts of cells (5 μg) were then tested for hydrolysis of 0.5 mM GP-AMC.
The inventors tested whether the inhibitory peptides can be inserted into cells. For this purpose the inventors established a method using a well characterized carrier peptide: Peptide 1 ([…]; SEQ ID NO: 48), in combination with […] (SEQ ID NO: 40). To test for effective inhibition, the inventors measured for hydrolysis of an artificial DPP8 and DPP9 substrate: GP-AMC, specifically in cytosolic extracts. For this, 5 μM or 10 μM of […] (SEQ ID NO: 40) were incubated with 100 μM Peptide 1, at 37° C. for 30 minutes, in […] DMEM without FCS, supplemented with glutamine and antibiotics. Once a complex was formed between the […] (SEQ ID NO: 40) and peptide 1, it was added to HEK293 cells (human embryonic kidney cells), grown in 24 well plates (50% confluence), and incubated for 30 minutes at 37° C. Cells were then trypsinized and washed twice with PBS buffer. Cell pellet was shock frozen in liquid nitrogen. […] Fluorescence was measured using the Appliskan microplate fluorimeter (Thermo Scientific) with 380 nm (excitation) and 480 nm (emission) filters and the Skanit software, and analysed using the Prism software.

A further test addresses T3, SUMO1-DPP9 interaction (Homo sapiens, UniProt P63165).
T3 construct: made in house; DPP9: Sf9 insect cells
The experiment in a line: ELISA: competition of SUMO1 binding to immobilized DPP9. Conditions: SUMO1 pre-incubated with varying concentrations of peptide. The protocol:
A. HA-tagged DPP9 mutants (DPP9V285A, DPP9V287A, DPP9I288A and DPP9V290) were expressed in HEK293T cells and purified using anti-HA beads agarose. Purified DPP9 proteins (input) were then incubated with SUMO1-immobilized beads. Bound DPP9 was eluted and analysed by western blotting using anti HA antibodies. B. Alignment of the amino-acid sequences corresponding to the ‘arms’ of DPP9 (SEQ ID NO: 3), DPP8 (SEQ ID NO: 4) and DPPIV (SEQ ID NO: 5). C A homology model of DPP9 (published by (Park et al., 2008)), shown from the ‘back’ side and the ‘front’ (180° rotation) side, which also reveal the so-called side opening. Color code: the hydrolase domain is dark grey, the eight-bladed propeller is light grey and the extended SUMO-binding-arm is indicated. D. Results of an ELISA assay. […] The SUMO1-peptide mix was then added to immobilized DPP9, and interacting SUMO1 was quantified using SUMO1-specific antibodies.
ELISA: A 96 well plate (Immuno 96 MicroWell™ Solid Plates, Nunc) was coated with 600 ng purified recombinant proteins per well in 100 μl TB, overnight at 4° C. […] Interacting proteins were detected using specific antibodies diluted in ELISA buffer: goat anti DPP9 antibody or anti GMP antibody (SUMO1). […] Absorbance was measured at 420 nm on an Appliskan microplate fluorimeter (Thermo Scientific) and the Skanit software. […]

T1 sequence (Q86TI2 1-892 isoform Q86TI2-2): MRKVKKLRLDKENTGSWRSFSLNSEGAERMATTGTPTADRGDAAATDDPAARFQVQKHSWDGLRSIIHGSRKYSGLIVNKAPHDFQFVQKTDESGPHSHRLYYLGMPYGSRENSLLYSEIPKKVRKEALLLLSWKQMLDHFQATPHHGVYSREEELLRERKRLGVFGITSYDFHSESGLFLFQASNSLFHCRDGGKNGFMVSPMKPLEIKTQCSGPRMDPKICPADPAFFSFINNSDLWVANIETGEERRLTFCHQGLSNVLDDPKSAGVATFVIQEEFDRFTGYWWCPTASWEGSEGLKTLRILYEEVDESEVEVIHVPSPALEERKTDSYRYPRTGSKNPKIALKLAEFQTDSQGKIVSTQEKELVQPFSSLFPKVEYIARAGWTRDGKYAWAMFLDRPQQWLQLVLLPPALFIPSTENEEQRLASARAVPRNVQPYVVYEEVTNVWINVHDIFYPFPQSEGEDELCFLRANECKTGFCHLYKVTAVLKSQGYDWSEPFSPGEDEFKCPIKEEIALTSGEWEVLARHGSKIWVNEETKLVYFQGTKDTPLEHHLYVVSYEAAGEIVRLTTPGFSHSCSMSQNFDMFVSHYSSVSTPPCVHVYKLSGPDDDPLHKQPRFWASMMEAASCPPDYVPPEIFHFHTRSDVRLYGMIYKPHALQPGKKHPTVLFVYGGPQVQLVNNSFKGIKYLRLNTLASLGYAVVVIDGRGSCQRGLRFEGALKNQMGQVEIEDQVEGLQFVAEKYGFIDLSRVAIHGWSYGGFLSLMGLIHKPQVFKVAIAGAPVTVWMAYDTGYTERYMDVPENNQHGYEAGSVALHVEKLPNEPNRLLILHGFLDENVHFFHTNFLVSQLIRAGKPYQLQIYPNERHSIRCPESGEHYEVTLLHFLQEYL
Sequence of DPPIV (P27487 whole entry): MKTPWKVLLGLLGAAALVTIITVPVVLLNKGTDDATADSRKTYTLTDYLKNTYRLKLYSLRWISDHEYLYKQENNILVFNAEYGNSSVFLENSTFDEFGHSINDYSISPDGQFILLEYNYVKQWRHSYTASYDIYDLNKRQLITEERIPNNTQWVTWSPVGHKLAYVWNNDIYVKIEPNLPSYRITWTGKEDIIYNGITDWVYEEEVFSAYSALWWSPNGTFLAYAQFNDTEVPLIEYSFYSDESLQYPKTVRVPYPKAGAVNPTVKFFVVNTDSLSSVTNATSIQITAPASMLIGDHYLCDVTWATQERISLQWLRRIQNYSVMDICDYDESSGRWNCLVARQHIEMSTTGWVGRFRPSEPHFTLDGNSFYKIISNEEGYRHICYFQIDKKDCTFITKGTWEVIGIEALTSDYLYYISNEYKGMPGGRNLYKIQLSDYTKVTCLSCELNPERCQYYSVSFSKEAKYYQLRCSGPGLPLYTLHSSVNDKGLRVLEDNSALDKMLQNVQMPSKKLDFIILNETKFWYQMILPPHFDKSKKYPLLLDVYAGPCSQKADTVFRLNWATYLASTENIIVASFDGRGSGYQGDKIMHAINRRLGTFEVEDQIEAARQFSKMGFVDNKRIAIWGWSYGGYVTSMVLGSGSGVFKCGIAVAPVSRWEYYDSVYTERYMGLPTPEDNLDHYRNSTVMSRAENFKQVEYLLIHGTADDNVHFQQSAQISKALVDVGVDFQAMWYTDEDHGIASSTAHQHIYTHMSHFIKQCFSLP
T3 sequence (P63165 2-97 limits assumed): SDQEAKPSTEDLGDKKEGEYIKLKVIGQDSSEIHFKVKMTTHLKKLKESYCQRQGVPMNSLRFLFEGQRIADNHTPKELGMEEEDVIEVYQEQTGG

For orientation: Ki means the equilibrium dissociation constant of an inhibitor or competing ligand from its target. As to H-SLRFLYEG, on DPP9 [1], the “fold increased efficiency compared to the EIL peptide (Ki DPP9)” value was found to be 18.5 fold. The Ki stood at 0.4 µM at DPP9 [1] (read-out: Ki for DPP9) and 3.6 µM on DPP8. The “inhibitory effect towards DPPIV” value at DPPIV is reported as “no inhibitory effect”. Moreover, the “cytosolic prolyl peptidase activity after exposure of cells” value in the test with HeLa cells [2] was “inhibits cytosolic prolyl peptidase activity”. Besides, the “fold lower affinity for DPP8 compared to DPP9” value at DPP8 turned out to be 9 fold. Besides, the “reduction in cell proliferation” value in the test with HeLa cells [3] is recorded as “at least 50%”. On DPP9 [4], the “% DPP9 activity (Mean)” value was 10.92%.

SLRFLYAG: in the test on HEK293 cells, the “inhibition of cytosolic prolyl peptidase activity” value is listed as about 30%.

“VEVIHVPSPALEERKTDSYR (listed as Homo sapiens) [DPP9-arm peptide, peptide corresponding to the extended arm of DPP9 (285-304)]”: the “competition with DPP9 for binding to SUMO1” value in the test with SUMO1-DPP9 interaction was “competed with DPP9 for binding to SUMO1 in a concentration dependent manner”.
